Data as given in patent US20140335166A1, “Methods of Making and Using Nano Scale Particles” (priority 2013, published 2014).

Test system: Cultured liver cells
Assay: Phosphatidylcholine biosynthesis as measure of cell function in cultured liver cells incubated with ethanol
Assay type: cell-based
Conditions: 100 mM ethanol, 24 hours
Protocol: As an example of the effectiveness of using the PPC, the following experiments were conducted. Cultured liver cells were incubated for 24 hours with 100 mM ethanol in the presence of (1) water, (2) VEP/EPC (egg phosphatidylcholine), or (3) VEP/PPC. Agent-dependent alterations in cell function were determined by measuring phosphatidylcholine biosynthesis. Similar results were obtained in the three separate preparations of cultured cells, all of which are reflected in the Table 1 set forth below. Control cells are expressed as 100%, meaning full cellular function. A reduction below 100% represents a decrease in cell function.

## CCO [Ethanol]
  reduction in cell function from control cells: 63%
Control cells = 100%, VEP/EPC (15 Mm EPC), VEP/PPC (15 Mm VEP and 30 Mm PPC)
  % Control ± SEM (phosphatidylcholine biosynthesis, cell function): 37 ± 1 %
